Values of other authors, collected in patent US12365919B2, “Serum-free suspension system for lentiviral production” (priority 2016, dated 2025).

Test system: lentiviral vector production
Conditions: serum-based culture system; worked only ~50% as well as caffeine

CCCC(=O)[O-].[Na+] [sodium butyrate]
lentiviral vector production enhancement, relative to caffeine: ~50%
